{"source": "patent US7812042B2", "about": "“Pharmaceutical compositions and therapeutic applications for the use of a novel vitamin B12 derivative, N-acetyl-L-cysteinylcobalamin” (priority 2006, dated 2010)", "key": {"[1]": {"assay": "Decomposition of thiolatocobalamins in PBS at 37° C. monitored by UV/Vis spectrophotometry", "type": "physicochemical", "settings": "decomposition in PBS at 37° C.", "method": "The decomposition of GSCbl, NACCbl, and HcyCbl in PBS at 37° C. was monitored by UV/Vis spectrophotometry."}, "SK-HEP-1 cells [2]": {"tested_on": "SK-HEP-1 cells", "assay": "Protection of endothelial cells from homocysteine-induced cell death (MTS assay, absorbance at 490 nm; includes comparison of NACCbl, NAC, cyanocobalamin+NAC, free thiols, other cobalamins, folate)", "type": "cell-based, Human", "settings": "for Absorbance at 490 nm (n = 6): replicates Y1-Y6", "method": "The effect of a constant concentration of NACCbl and GSCbl to protect cells against variable concentrations of homocysteine was assessed. […] Cell viability was determined by MTS® assay. Data shown in FIG. 4 are representative of means ±SE of 6 independent samples. FIG. 4 illustrates that NACCbl (▪) and GSCbl (▴) protect endothelial cells from the effect of homocysteine. […] Cell viability was determined by MTS® assay. […] There was a decrease in protection as homocysteine concentration increased, but there was still ˜60% survival at 50 μM homocysteine.\nThe data was normalized (log 2 and log 10) as shown in FIGS. 16 and 17 and Tables 16 and 17, respectively, below."}, "SK-HEP-1 cells [3]": {"tested_on": "SK-HEP-1 cells", "assay": "Protection of endothelial cells from H2O2-induced cell death (MTS assay)", "type": "cell-based, Human", "method": "The effect of increasing concentrations of NACCbl and GSCbl to protect endothelial cells from the effect of H2O2 was assessed. […] Cell viability was determined by MTS® assay. […] Cell viability was determined by MTS® assay. […] Cell viability was determined by MTS® assay."}, "SK-HEP-1 cells [4]": {"tested_on": "SK-HEP-1 cells", "assay": "Protection from apoptosis induced by homocysteine (Caspase-3 activity)", "type": "cell-based, Human", "settings": "30 μM pre-treatment two hours, then 30 μM homocysteine two hours", "method": "Caspase 3 is activated when cells undergo apoptosis. Caspase-3 assay is a standard for apoptosis assay. Homocysteine is a known inducer of apoptosis. Cells were cultured in 96-well plates for 24 hours and then treated with reagents under test conditions. Cytotoxic agents, H2O2 and etoposide were added to negative control wells. The assay was performed according to the manufacturer's protocol, as follows: Cells were re-suspended in 100 μl of clear media and 50 μl of Caspase-3 substrate solution was immediately added to each test well. […] Cell viability was determined by MTS® assay. […] Cell viability was determined by MTS® assay."}, "[5]": {"settings": "2 hours pre-incubation, then 25 μM H2O2 24 hours"}}, "note": "Several values for one entry are separate records, joined by “and”; a condition that tells them apart may be missing. Equal entries are not always repeated."}
{"smiles": "CC(=O)NC(C[S-])C(=O)O.CC1=C2N=C(C=C3N=C(C(C)=C4[N-]C(C(CC(N)=O)C4(C)CCC(=O)NCC(C)OP(=O)([O-])OC4C(CO)OC(n5cnc6cc(C)c(C)cc65)C4O)C4(C)N=C1C(CCC(N)=O)C4(C)CC(N)=O)C(CCC(N)=O)C3(C)C)C(CCC(N)=O)C2(C)CC(N)=O.[Co+3]", "note": "[NACCbl, N-acetyl-L-cysteinylcobalamin]", "values": [{"measurement": "t1/2", "setting": "[1]", "result": "No decomposition within 20 hours"}, {"measurement": "survival", "setting": "SK-HEP-1 cells [2]; 30 μM cobalamin pre-incubation two hours, then 50 μM homocysteine two hours", "result": "~60", "unit": "%"}, {"measurement": "pre-incubation concentration that protected cells from homocysteine-induced cell death", "setting": "SK-HEP-1 cells [2]; 2 hours pre-incubation, then 30 μM homocysteine 24 hours", "result": "≥ 2.0", "unit": "µM"}, {"measurement": "Absorbance at 490 nm, Mean (n = 6)", "setting": "SK-HEP-1 cells [2]; Conc. Hcy 0.000, NACCbl 30 μM, NAC 75 μM", "result": 2.761}, {"measurement": "Absorbance at 490 nm, Mean (n = 6)", "setting": "SK-HEP-1 cells [2]; Conc. Hcy 1.780 (μM), NACCbl 30 μM, NAC 75 μM", "result": 2.673}, {"measurement": "Absorbance at 490 nm, Mean (n = 6)", "setting": "SK-HEP-1 cells [2]; Conc. Hcy 3.125 (μM), NACCbl 30 μM, NAC 75 μM", "result": 2.404}, {"measurement": "Absorbance at 490 nm, Mean (n = 6)", "setting": "SK-HEP-1 cells [2]; Conc. Hcy 6.250 (μM), NACCbl 30 μM, NAC 75 μM", "result": 2.273}, {"measurement": "Absorbance at 490 nm, Mean (n = 6)", "setting": "SK-HEP-1 cells [2]; Conc. Hcy 12.500 (μM), NACCbl 30 μM, NAC 75 μM", "result": 2.142}, {"measurement": "Absorbance at 490 nm, Mean (n = 6)", "setting": "SK-HEP-1 cells [2]; Conc. Hcy 25.000 (μM), NACCbl 30 μM, NAC 75 μM", "result": 1.954}, {"measurement": "Absorbance at 490 nm, Mean (n = 6)", "setting": "SK-HEP-1 cells [2]; Conc. Hcy 50.000 (μM), NACCbl 30 μM, NAC 75 μM", "result": 1.786}, {"measurement": "Absorbance at 490 nm, Mean (n = 6)", "setting": "SK-HEP-1 cells [2]; Conc. Hcy 100.000 (μM), NACCbl 30 μM, NAC 75 μM", "result": 1.685}, {"measurement": "Absorbance at 490 nm, Mean (n = 6)", "setting": "SK-HEP-1 cells [2]; Conc. Hcy 200.000 (μM), NACCbl 30 μM, NAC 75 μM", "result": 1.393}, {"measurement": "Absorbance at 490 nm (n = 6)", "setting": "SK-HEP-1 cells [2]; Conc. of Hcy 0.000, NACCbl 30 μM, NAC 75 μM", "result": "2.885 and 2.698 and 2.821 and 2.771 and 2.691 and 2.700"}, {"measurement": "Absorbance at 490 nm (n = 6)", "setting": "SK-HEP-1 cells [2]; Conc. of Hcy 1.780, NACCbl 30 μM, NAC 75 μM", "result": "2.647 and 2.551 and 2.789 and 2.890 and 2.549 and 2.611"}, {"measurement": "Absorbance at 490 nm (n = 6)", "setting": "SK-HEP-1 cells [2]; Conc. of Hcy 3.125, NACCbl 30 μM", "result": "2.453 and 2.338 and 2.360 and 2.317 and 2.418 and 2.535"}, {"measurement": "Absorbance at 490 nm (n = 6)", "setting": "SK-HEP-1 cells [2]; Conc. of Hcy 6.250, NACCbl 30 μM, NAC 75 μM", "result": "2.410 and 2.400 and 2.322 and 2.201 and 2.115 and 2.187"}, {"measurement": "Absorbance at 490 nm (n = 6)", "setting": "SK-HEP-1 cells [2]; Conc. of Hcy 12.500, NACCbl 30 μM, NAC 75 μM", "result": "2.210 and 2.110 and 2.045 and 2.065 and 2.101 and 2.324"}, {"measurement": "Absorbance at 490 nm (n = 6)", "setting": "SK-HEP-1 cells [2]; Conc. of Hcy 25.000, NACCbl 30 μM, NAC 75 μM", "result": "2.100 and 2.190 and 1.879 and 1.937 and 1.779 and 1.837"}, {"measurement": "Absorbance at 490 nm (n = 6)", "setting": "SK-HEP-1 cells [2]; Conc. of Hcy 50.000, NACCbl 30 μM, NAC 75 μM", "result": "1.678 and 1.832 and 1.881 and 1.730 and 1.740 and 1.855"}, {"measurement": "Absorbance at 490 nm (n = 6)", "setting": "SK-HEP-1 cells [2]; Conc. of Hcy 100.000, NACCbl 30 μM, NAC 75 μM", "result": "1.678 and 1.592 and 1.694 and 1.773 and 1.732 and 1.639"}, {"measurement": "Absorbance at 490 nm (n = 6)", "setting": "SK-HEP-1 cells [2]; Conc. of Hcy 200.000, NACCbl 30 μM, NAC 75 μM", "result": "1.378 and 1.167 and 1.330 and 1.456 and 1.491 and 1.537"}, {"measurement": "protection against homocysteine-induced damage compared with free thiols", "setting": "SK-HEP-1 cells [2]; Hcy 30 μM, NAC 45, GSH 100, NACCbl 12.5, GSCbl 15 μM, with or without folate 25 μM", "result": "superior to the free thiols"}, {"measurement": "protection compared with GSCbl (p<0.001)", "setting": "SK-HEP-1 cells [2]; concentrations below 12.5 μM, 30 μM homocysteine 24 hours", "result": "significantly greater than that provided by GSCbl"}, {"measurement": "prevention of cell death compared with NAC and cyanocobalamin+NAC", "setting": "SK-HEP-1 cells [2]; variable Hcy concentration, NACCbl 30 μM", "result": "superior to either NAC (75 μM) alone or in combination with CNCbl"}, {"measurement": "survival", "setting": "SK-HEP-1 cells [2]; ≧12.5 μM NACCbl 2 hours, then 30 μM homocysteine 24 hours", "result": 80, "unit": "%"}, {"measurement": "protection by NACCbl compared with GSCbl", "setting": "SK-HEP-1 cells [3]; 25 μM H2O2 24 hours", "result": "no difference"}, {"measurement": "concentration required to achieve >80% survival", "setting": "SK-HEP-1 cells [3]; [5]", "result": 100, "unit": "µM"}, {"measurement": "pre-incubation concentration that protected cells from H2O2-induced cell death", "setting": "SK-HEP-1 cells [3]; [5]", "result": "≥ 2.0", "unit": "µM"}, {"measurement": "protection against apoptosis induced by homocysteine", "setting": "SK-HEP-1 cells [4]", "result": "total protection"}]}
